The test system of one series is rice. The note with it: known compound; cited from earlier work.
Another series deals with Indica rice. Description: Post-emergence test experiment (Table 4), crop safety. It is filed as in vivo. The note with it: after 3 weeks.
For another series, the system named is Japonica rice. The series is described as above. The series is classed as in vivo. To be noted: after 3 weeks.
Series [1] relates to ALS resistant Cyperus iria. Description: Post-emergence test experiment (Table 4), weed control. The series is classed as in vivo. To be noted: after 3 weeks.
For series [2], the system named is ALS resistant Echinochloa crusgalli. The description is as above. It is filed as in vivo. The note with it: after 3 weeks.
Series [3] deals with Monochoria vaginalis. Description: Weed control effect evaluation in rice field. It is filed as in vivo. To be noted: 1000 g/ha, paddy water application at 0.5 leaf stage, 14 days after treatment, weeds resistant to pyrazosulfuron-ethyl and penoxsulam.
A further series has as its system Leptochloa chinensis. Description: Post-emergence test experiment (Table 3, 1000 g/ha). It is filed as in vivo. The note with it: post-emergence spray, after 3 weeks, fresh weight inhibition. In outline: (§1)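 Weed seeds sown in soil-filled pots in greenhouse, sprayed at 2-3 leaf stage (2 weeks after sowing) with compound in acetone/tween-80 plus methyl oleate emulsible concentrate (1.5 L/ha) diluted in water. Fresh-weight growth inhibition scored after 3 weeks on 0-5 scale (5: >85%, 0: <5%).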

Another series concerns Galium spurium. The series is described as above. The note with it: post-emergence spray, after 3 weeks, fresh weight inhibition. The series is classed as in vivo. In outline:
as §1

The subject of the next series is Abutilon theophrasti. Described as above. The series is classed as in vivo. The note with it: post-emergence spray, after 3 weeks, fresh weight inhibition. In outline:
as §1

In series [4] the test system is Monochoria vaginalis. The description is as above. The series is classed as in vivo. The note with it: post-emergence spray, after 3 weeks, fresh weight inhibition. In outline:
as §1

Another series relates to Setaria viridis. The series is described as above. The series is classed as in vivo. The note with it: post-emergence spray, after 3 weeks, fresh weight inhibition. An outline of the steps: as §1
The subject of a further series is Digitaria sanguinalis. Described as above. The note with it: post-emergence spray, after 3 weeks, fresh weight inhibition. The series is classed as in vivo. An outline of the steps: as §1
Another series concerns rice (japonica rice). Description: Transplanted rice safety evaluation. It is filed as in vivo. The note with it: 1000 g/ha, transplanted 3-leaf stage japonica rice, treated 5 days after transplantation, 21 days after treatment. In outline: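 Rice-field soil in pots was flooded to 3-4 cm, and 3-leaf japonica rice was transplanted at 3 cm depth; compound was applied 5 days after transplanting. Growth was scored visually 21 days after treatment (Monochoria vaginalis at 14 days) on a 0–5 growth-inhibition scale.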

Where [5] appears, read: 600 g/ha active ingredient, plus water 450 kg/ha.

For the compound `CC(Oc1nc(F)c(Cl)c(N)c1Cl)C(=O)O` (stereo not drawn) [Control compound A, reference compound], the “safety and selectivity in rice” value in the series with rice is “poor safety and low selectivity in rice”. The “Indica rice, activity level (growth inhibition rate)” value with Indica rice (300 g/ha) is 2 (Level 2: the growth inhibition rate is equal to or greater than 20% and less than 40%); in the series with Indica rice (setting [5]) it was 3 (Level 3: the growth inhibition rate is equal to or greater than 40% and less than 60%). Besides, the “Japonica rice, activity level (growth inhibition rate)” value is 3 (Level 3: the growth inhibition rate is equal to or greater than 40% and less than 60%) in the series with Japonica rice (300 g/ha); 3 (Level 3: the growth inhibition rate is equal to or greater than 40% and less than 60%) in the series with Japonica rice (setting [5]). Further, the “ALS resistant Cyperus iria, activity level (growth inhibition rate)” value is 4 (Level 4: the growth inhibition rate is equal to or greater than 60% and less than 85%) in series [1] (300 g/ha); 5 (Level 5: the growth inhibition rate is greater than 85%) in series [1] (setting [5]). For the same compound, the “ALS resistant Echinochloa crusgalli, activity level (growth inhibition rate)” value in [2] (300 g/ha) was 4 (Level 4: the growth inhibition rate is equal to or greater than 60% and less than 85%); in series [2] (setting [5]), 5 (Level 5: the growth inhibition rate is greater than 85%).
As to `CCCCC(CC)CSC(=O)C(C)Oc1nc(F)c(Cl)c(N)c1Cl` (stereo not drawn) [Compound 74], in the series with Monochoria vaginalis [3], the “Monochoria Vaginalis, activity standard level 0-5” value is 5 (Level 5: the growth inhibition rate is greater than 85%). The “Indica rice, activity level (growth inhibition rate)” value with Indica rice (setting [5]) is listed as 0 (Level 0: the growth inhibition rate is less than 5%). The “Japonica rice, activity level (growth inhibition rate)” value in the series on Japonica rice (setting [5]) is 0 (Level 0: the growth inhibition rate is less than 5%). In addition, the “Activity level (growth inhibition rate) Leptochloa chinensis” value in the series with Leptochloa chinensis is reported as 5 (Level 5: the growth inhibition rate is greater than 85%). The “Activity level (growth inhibition rate) Galium spurium” value with Galium spurium is listed as 5 (Level 5: the growth inhibition rate is greater than 85%). In addition, in the series with Abutilon theophrasti, the “Activity level (growth inhibition rate) Abutilon theophrasti” value is recorded as 5 (Level 5: the growth inhibition rate is greater than 85%). Moreover, the “Activity level (growth inhibition rate) Monochoria Vaginalis” value in the series on Monochoria vaginalis [4] is 5 (Level 5: the growth inhibition rate is greater than 85%). The “Activity level (growth inhibition rate) Setaria viridis” value in the series on Setaria viridis was 5 (Level 5: the growth inhibition rate is greater than 85%). In the series on Digitaria sanguinalis, the “Activity level (growth inhibition rate) Digitaria sanguinalis” value was 5 (Level 5: the growth inhibition rate is greater than 85%). Besides, in the series with rice (japonica rice), the “Rice, activity standard level 0-5 (safety)” value was 0 (Level 0: the growth inhibition rate is less than 5%). Also, in [1] (setting [5]), the “ALS resistant Cyperus iria, activity level (growth inhibition rate)” value is 5 (Level 5: the growth inhibition rate is greater than 85%). Besides, in series [2] (setting [5]), the “ALS resistant Echinochloa crusgalli, activity level (growth inhibition rate)” value is on record as 5 (Level 5: the growth inhibition rate is greater than 85%).
